Series [1] is described as follows: Oral bioavailability in mouse. Type of series: ADME, organism-based. The note with it: in vivo.
The target in series [2] is T1, Ectonucleotide pyrophosphatase/phosphodiesterase family member 1 (Homo sapiens, UniProt P22413).
T1 sequence (P22413 whole entry): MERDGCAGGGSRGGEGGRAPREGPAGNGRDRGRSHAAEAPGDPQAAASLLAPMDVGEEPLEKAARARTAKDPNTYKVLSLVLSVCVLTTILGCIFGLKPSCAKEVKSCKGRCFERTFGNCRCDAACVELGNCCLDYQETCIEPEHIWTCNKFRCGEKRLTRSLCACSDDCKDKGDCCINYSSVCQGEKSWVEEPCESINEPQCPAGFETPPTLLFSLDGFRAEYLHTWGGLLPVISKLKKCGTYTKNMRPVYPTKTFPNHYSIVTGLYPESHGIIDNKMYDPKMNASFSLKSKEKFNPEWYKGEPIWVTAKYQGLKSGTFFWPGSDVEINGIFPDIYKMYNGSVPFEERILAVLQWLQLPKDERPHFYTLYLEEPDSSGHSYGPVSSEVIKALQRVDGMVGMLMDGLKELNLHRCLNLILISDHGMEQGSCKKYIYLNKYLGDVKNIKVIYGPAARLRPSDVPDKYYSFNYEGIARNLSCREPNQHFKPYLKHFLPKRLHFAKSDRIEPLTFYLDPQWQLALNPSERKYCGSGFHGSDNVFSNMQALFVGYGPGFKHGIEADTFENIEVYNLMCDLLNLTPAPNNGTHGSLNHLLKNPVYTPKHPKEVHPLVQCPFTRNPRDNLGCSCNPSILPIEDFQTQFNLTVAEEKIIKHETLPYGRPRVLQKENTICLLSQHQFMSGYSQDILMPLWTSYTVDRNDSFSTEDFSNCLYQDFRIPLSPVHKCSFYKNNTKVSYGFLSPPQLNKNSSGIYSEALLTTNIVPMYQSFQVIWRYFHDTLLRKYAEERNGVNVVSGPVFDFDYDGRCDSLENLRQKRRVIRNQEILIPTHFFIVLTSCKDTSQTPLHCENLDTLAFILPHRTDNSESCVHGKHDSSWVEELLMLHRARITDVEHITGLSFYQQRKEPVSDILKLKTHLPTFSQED
The series is described as follows: Binding affinity to ENPP1 (unknown origin) assessed as inhibition constant.

Series [3] deals with T1, Ectonucleotide pyrophosphatase/phosphodiesterase family member 1. In words: Binding affinity to human ENPP1 assessed as inhibition constant.
Series [4] shares this target. In words: Inhibition of ENPP1 (unknown origin).
For series [5] the target is unchanged. The series is described as follows: Inhibition of human ENPP1.

Where only a bound is given, the exact number is not on record here.

The term bioavailability denotes the share of a dose that reaches the circulation, judged against a reference dose that is usually intravenous. A high value points to good availability. `Cn1nc(Cc2ccc(NS(N)(=O)=O)cc2)c2ccccc2c1=O` gave a bioavailability in series [1] of 65%.

A word on the Ki: it is the dissociation constant of the complex between target and ligand, obtained from inhibition or displacement. Consider `Nc1ncnc2c1ncn2[C@@H]1O[C@H](COP(=O)(O)CP(=O)(O)OP(O)(O)=S)[C@@H](O)[C@H]1O`, for which the Ki in series [2] was 20 µM.

In the case of `O=C(/C=C/c1ccc(O)c(O)c1)O[C@H](Cc1ccc(O)c(O)c1)C(=O)O` [ROSMARINIC ACID], the inhibitory constant (Ki) in series [3] came out at 26.9 nM.

In general, IC50 refers to the concentration at which inhibition is half-maximal. Take `Cc1nc2ncnn2c(N(C)C)c1Cc1cccc(N)c1`: 260 µM corresponded to half-maximal inhibition in series [4] (IC50).

With `COc1ccc(NC(=O)CSc2nc3c(C)c(C#N)ncc3[nH]2)cc1O`, the midpoint of inhibition in series [4], the IC50, lay at 2.06 µM.

In the case of `COc1cc2cc(-n3cc(C)c4ccccc43)n3c4ccccc4c(C)c3c2cc1OC`, in series [5], the IC50 was found to be 360 nM.

For `COc1cccc2c(N3CCC(CCP(=O)(O)O)CC3)ncnc12`, the Ki in series [3] is less than 2 nM.
